Where two headings read alike, the source gives them in different places.
Experiments:
OT-I TCR [1] = test: SPR steady-state binding of soluble OT-I TCR to immobilised pMHC (H-2Kb) at 37 °C: apparent and active KD; set-up: species or system mouse
OT-I TCR [2] = conditions: file OT1 Discrimination Published Original KD; repeated per study block; ref Alam 99, Rosette; cited from earlier work
Description: Supplement 44318_2025_644_MOESM7_ESM.zip/OT1 Discrimination Published Original KD.csv, table

naive OT-I splenocytes = conditions: relative to OVA (N4) = 1; ref Huang 2010; cited from earlier work
[3] = system: naive CD8+ T cells from OT-I transgenic mice; conditions: 2D affinity AcKa; ref Huang 2010; cited from earlier work
Description: This striking observation spur ...

OT-I TCR [4] = conditions: ref Alam 99, cited from earlier work
[5] = system: pre-selection OT-I double-positive thymocytes; set-up: method as in Daniels 2006; conditions: relative to OVA (N4) = 1; ref Daniels 2006; cited from earlier work
[6] = system: OT-I T cells from transgenic mice; set-up: method as in Hogquist 1995; conditions: relative to OVA (N4) = 1; ref Hogquist 1995; cited from earlier work
OT-I TCR [7] = conditions: 25 °C; ref Alam 95; read-out: Original KD, Alam 95 25ºC; cited from earlier work
Description: Supplement 44318_2025_644_MOESM5_ESM.zip/KDs - Original vs Revised column.xlsx, sheet "KDs - Original vs Revised colum" | column: Original KD from indicated studies in columns

[8] = molecular target: VSV pMHC: […] on H-2K^b with human beta-2 microglobulin (mouse | human | not stated); test: SPR
OT-I TCR [9] = test: SPR binding of OT-I TCR to inactive (denatured or unfolded) pMHC, Bmax constrained to pMHC immobilisation level; set-up: species or system mouse; conditions: unit not printed in the file (text: µM), read-out: KD for inactive pMHC, single experiment
Target sequence in this assay (as listed by the source): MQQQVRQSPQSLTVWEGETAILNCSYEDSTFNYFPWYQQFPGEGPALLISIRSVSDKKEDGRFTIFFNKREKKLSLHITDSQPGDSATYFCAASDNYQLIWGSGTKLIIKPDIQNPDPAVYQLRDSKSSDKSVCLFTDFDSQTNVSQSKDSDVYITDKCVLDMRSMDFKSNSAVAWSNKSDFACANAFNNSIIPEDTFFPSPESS
Target sequence in this assay (as listed by the source): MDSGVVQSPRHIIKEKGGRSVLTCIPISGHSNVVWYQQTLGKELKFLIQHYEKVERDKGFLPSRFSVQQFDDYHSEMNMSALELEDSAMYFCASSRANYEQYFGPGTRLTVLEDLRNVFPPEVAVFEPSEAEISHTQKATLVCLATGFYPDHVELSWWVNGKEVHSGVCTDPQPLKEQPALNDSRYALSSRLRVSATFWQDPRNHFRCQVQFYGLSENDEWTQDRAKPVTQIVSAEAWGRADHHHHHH

OT-I TCR [10] = molecular target: OT-I TCR; set-up: method as in Stepanek et al, 2014; conditions: SPR equilibrium binding analysis, 25 °C, mean of two independent replicates; ref Stepanek et al, 2014; cited from earlier work
[11] = system: naive or anergic mouse OT-I CD8+ T cells; set-up: method as in 2 sources, ref Lo et al, 2023 ||| ref Lo 2023; conditions: relative to OVA (N4) = 1; values with * excluded; ref Lo 2023; cited from earlier work
[12] = system: CD8+ Jurkat cells expressing the OT-I TCR; set-up: method as in Lo 2019; conditions: relative to OVA (N4) = 1; ref Lo 2019; cited from earlier work
OT-I T cells = system: OT-I T cells; set-up: method as in Zehn 2009; conditions: relative to OVA (N4) = 1; ref Zehn 2009; cited from earlier work
[13] = replicate 1 (1st value of the list in KD_active_calculated.csv), 37 °C, unit not given in the file (Table 1: µM), read-out: KD active, single SPR experiment
[14] = replicate 2 (2nd value of the list), 37 °C, unit inferred, read-out: KD active, single SPR experiment
[15] = replicate 3 (3rd value of the list), 37 °C, unit inferred, read-out: KD active, single SPR experiment
[16] = replicate 4 (4th value of the list), 37 °C, unit inferred, read-out: KD active, single SPR experiment
[17] = replicate 5 (5th value of the list), 37 °C, unit inferred, read-out: KD active, single SPR experiment
[18] = replicate 6 (6th value of the list), 37 °C, unit inferred, read-out: KD active, single SPR experiment
[19] = 25 °C, read-out: Original KD, Alam 99 (25ºC)
[20] = 37 °C, * excluded values, because kinetics showed biphasic behaviour, read-out: Original KD, Alam 99 (37ºC)
[21] = SPR, single repeats, read-out: KDs active

Row | Substance | Kd (OT-I TCR [1]; [13]) | Kd (OT-I TCR [1]; [14]) | Kd (OT-I TCR [1]; [15]) | Kd (OT-I TCR [1]; [16]) | Kd (OT-I TCR [1]; [17]) | Kd (OT-I TCR [1]; [18]) | further results
1 | ATLVFHNL [Stat3] | 2270 µM | 4730 µM | 3740 µM |  |  |  | 
2 | EIINFEKL [Peptide E1] |  | 2800 µM | 12400 µM | 3870 µM | 3520 µM | 2180 µM | Kd (OT-I TCR [1]; replicate 7 (7th value of the list), 37 °C, unit inferred, read-out: KD active, single SPR experiment): 2320 µM; Kd (OT-I TCR [1]; replicate 8 (8th value of the list), 37 °C, unit inferred, read-out: KD active, single SPR experiment): 3030 µM; Kd (OT-I TCR [1]; replicate 9 (9th value of the list), 37 °C, unit inferred, read-out: KD active, single SPR experiment): 7240 µM; Kd (OT-I TCR [1]; replicate 10 (10th value of the list), 37 °C, unit inferred, read-out: KD active, single SPR experiment): 2140 µM; Kd (OT-I TCR [2]): 20.3 µM; Potency, Huang 2010 (naive OT-I splenocytes): 167000; 2D Huang 37¼C (AcKa) [3]: 0.0000054; Kd (OT-I TCR [4]; [19]): 20.3 µM; Potency, Daniels 2006 [5]: 56524; Potency, Hogquist 1995 [6]: 5010000; Kd (OT-I TCR [7]): 22.6 µM
3 | ISFKFDHL [Cappa1] | 2470 µM | 6920 µM | 9740 µM | 3280 µM | 2800 µM | 2530 µM | 
4 | OT-I TCR (soluble; murine variable domains, human constant domains, artificial interchain disulphide) |  |  |  |  |  |  | Kd [8]: 1580 µM
5 | RGYNYEKL [V-OVA, its pMHC is not correctly folded] |  |  |  |  |  |  | Kd (OT-I TCR [2]): 19 µM; Potency, Huang 2010 (naive OT-I splenocytes): 417000; 2D Huang 37¼C (AcKa) [3]: 0.0000029; Kd (OT-I TCR [4]; [19]): 18.2 µM; Kd (OT-I TCR [4]; [20]): 12.7 µM; Kd (OT-I TCR [7]): 29.8 µM; Kd (OT-I TCR [9]; replicate 1 (first line of Denatured KD.csv)): 1560 µM; Kd (OT-I TCR [9]; replicate 2 (second line of Denatured KD.csv)): 2630 µM
6 | RTYTYEKL [Catnb] | 2040 µM | 1880 µM | 1900 µM | 2040 µM | 1950 µM | 2380 µM | Kd (OT-I TCR [1]; [21]): 2040 µM
7 | SIAAFASL [Null] | 4610 µM | 3520 µM | 2350 µM |  |  |  | 
8 | SIIEFEKL [Peptide E4] | 3370 µM | 4000 µM | 2730 µM |  |  |  | Kd (OT-I TCR [10]): > 1000 µM
9 | SIIKFEKL [Peptide K4] | 2710 µM | 3290 µM | 2190 µM |  |  |  | 
10 | SIIQFERL [Peptide Q4R7] | 184 µM | 273 µM | 317 µM |  |  |  | Potency, Lo 2023 [11]: 14.78; Kd (OT-I TCR [10]): 288 µM; Potency, Lo 2019 [12]: 3.464; Potency, Daniels 2006 [5]: 81
11 | SIIRFEKL [Peptide R4] | 7640 µM | 3760 µM | 4270 µM | 5030 µM | 6430 µM | 4280 µM | Kd (OT-I TCR [1]; [21]): 4270 µM; Kd (OT-I TCR [1]; repeat 3, read-out: Revised KDs (This Study)): 4270 µM; Kd (OT-I TCR [1]; repeat 6, read-out: Revised KDs (This Study)): 4270 µM; Kd (OT-I TCR [2]): 40.1 µM; Potency, Huang 2010 (naive OT-I splenocytes): 167000; 2D Huang 37¼C (AcKa) [3]: 0.0000017; Kd (OT-I TCR [4]; [19]): 40.1 µM; Kd (OT-I TCR [4]; [20]): 26.9 µM; Kd (OT-I TCR [7]): 57.1 µM
12 | SIIVFEKL [Peptide V4] | 907 µM | 791 µM | 628 µM | 879 µM |  |  | Potency, Lo 2023 [11]: 2016; Kd (OT-I TCR [10]): > 1000 µM; Potency, Zehn 2009 (OT-I T cells): 680
13 | VGPRYTNL [Mapk1] |  | 4240 µM | 1810 µM | 2010 µM |  |  | 
